Where a name gives a salt, the structure may show the parent alone. Read-outs that look alike come from different tables or passages of the source. Numbered stars: 1 amine (or outer) side, 2 acyl side, 3 side chain; on linkers, the order of the positions; unused ones are H or OH. Bridge positions count the residues as written; N and C are the ends. Square brackets hold non-standard residues; d marks the D form. Peptide text beside a SMILES is read from it. Adda = CO[C@@H](Cc1ccccc1)[C@@H](C)/C=C(C)/C=C/[C@H](N[*:1])[C@H](C)C(=O)[*:2]; dAsp(3S-Me) = C[C@H](C(=O)[*:3])[C@@H](N[*:1])C(=O)[*:2]; d(γGlu) = O=C(O)[C@@H](CCC(=O)[*:2])N[*:1]; NMeDha = C=C(NC)C(=O)O
Assays:
Aurora kinase B = Aurora kinase B (Homo sapiens, UniProt Q96GD4); conditions: description of known inhibitor; cited from earlier work
[1] = test system: breast cancer cells expressing high levels of Fra-1
PP2A = conditions: cited from earlier work
PP1 = conditions: cited from earlier work
E2F1-DNA complex = E2F1-DNA complex (Homo sapiens, UniProt Q01094); conditions: description of known inhibitor; cited from earlier work
PP4 = PP4 (Homo sapiens, UniProt P60510); conditions: description of known inhibitor; cited from earlier work
Adenosine A2b receptor = Adenosine A2b receptor (Homo sapiens, UniProt P29275); conditions: description of known inhibitor; cited from earlier work
PRLs = conditions: cited from earlier work

Adenosine A2b receptor, sequence (P29275 whole entry): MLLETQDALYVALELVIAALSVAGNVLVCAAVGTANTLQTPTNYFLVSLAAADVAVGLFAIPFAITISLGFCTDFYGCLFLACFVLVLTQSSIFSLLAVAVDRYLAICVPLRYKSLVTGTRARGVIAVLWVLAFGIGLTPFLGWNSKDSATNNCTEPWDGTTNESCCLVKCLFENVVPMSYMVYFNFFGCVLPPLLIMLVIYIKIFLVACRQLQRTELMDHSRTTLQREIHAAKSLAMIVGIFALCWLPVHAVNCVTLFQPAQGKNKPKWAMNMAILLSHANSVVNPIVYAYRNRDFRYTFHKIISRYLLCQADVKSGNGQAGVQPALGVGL
PP4, sequence (P60510 whole entry): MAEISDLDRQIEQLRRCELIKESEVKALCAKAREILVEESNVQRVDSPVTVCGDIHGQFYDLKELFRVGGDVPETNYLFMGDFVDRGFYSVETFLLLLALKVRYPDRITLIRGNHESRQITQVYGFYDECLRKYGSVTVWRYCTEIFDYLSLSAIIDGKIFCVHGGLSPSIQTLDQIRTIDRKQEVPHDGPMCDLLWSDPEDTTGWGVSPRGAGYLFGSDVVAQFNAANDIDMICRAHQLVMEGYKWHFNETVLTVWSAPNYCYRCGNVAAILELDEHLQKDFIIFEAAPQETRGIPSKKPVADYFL
E2F1-DNA complex, sequence (Q01094 whole entry, one chain of several): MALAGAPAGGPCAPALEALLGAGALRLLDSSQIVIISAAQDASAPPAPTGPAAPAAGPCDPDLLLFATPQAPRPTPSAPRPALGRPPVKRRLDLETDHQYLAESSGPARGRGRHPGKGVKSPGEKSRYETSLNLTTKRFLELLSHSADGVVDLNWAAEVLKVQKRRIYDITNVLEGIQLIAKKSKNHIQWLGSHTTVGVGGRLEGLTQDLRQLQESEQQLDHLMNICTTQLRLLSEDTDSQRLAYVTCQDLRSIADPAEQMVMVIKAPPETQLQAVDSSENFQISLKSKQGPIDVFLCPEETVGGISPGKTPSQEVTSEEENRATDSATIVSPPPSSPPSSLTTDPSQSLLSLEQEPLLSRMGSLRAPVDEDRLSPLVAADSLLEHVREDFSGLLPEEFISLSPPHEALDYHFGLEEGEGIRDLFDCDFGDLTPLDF
Aurora kinase B, sequence (Q96GD4 whole entry): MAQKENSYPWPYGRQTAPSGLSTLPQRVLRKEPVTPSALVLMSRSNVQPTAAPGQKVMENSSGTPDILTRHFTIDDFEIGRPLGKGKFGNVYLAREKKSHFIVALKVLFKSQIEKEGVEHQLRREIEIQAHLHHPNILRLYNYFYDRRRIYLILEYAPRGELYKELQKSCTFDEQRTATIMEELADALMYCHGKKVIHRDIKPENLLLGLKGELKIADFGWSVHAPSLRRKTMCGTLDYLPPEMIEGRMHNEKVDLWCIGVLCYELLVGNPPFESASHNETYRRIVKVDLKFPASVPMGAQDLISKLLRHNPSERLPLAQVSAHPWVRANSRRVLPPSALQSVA

**Q.** With `CCN(CCCOc1ccc2c(Nc3cc(CC(=O)Nc4cccc(F)c4)n[nH]3)ncnc2c1)CCOP(=O)(O)O` [AZD1152] as the molecule, how does the “inhibition of Aurora kinase B” value (Aurora kinase B) read?
**A.** Its value is “selective inhibitor”.

**Q.** With `Nc1nc2ccc(Cl)cc2c2nc(-c3ccco3)nn12` [CGS-15953] as the molecule, how does the “cytotoxicity for breast cancer cells expressing high levels of Fra-1” value [1] read?
**A.** The value was “*In an in vitro drug screen with the LOPAC library, we identified those two ADORA2B inhibitors as being selectively cytotoxic for breast cancer cells expressing high levels of Fra-1”.

**Q.** Which results are given for `COC[C@@H]([C@H](O)[C@H](O)C(=O)NCC[C@H](C)c1nc(/C=C/C[C@@H]2O[C@]3(C[C@@H](O)[C@@H]2C)O[C@H]([C@H](C[C@H](O)[C@H](C)[C@H](O)[C@H](C)/C=C(C)/C(C)=C/C=C/C(C)=C\C#N)OC)[C@H](OP(=O)(O)O)C3(C)C)co1)N(C)C` [Calyculin A]?
**A.** potency for PP2A (PP2A; description of known inhibitor): high potency for PP2A, low potency for PP1; potency for PP1 (PP1): high potency for PP2A, low potency for PP1

**Q.** For `C[C@@]12C(=O)OC(=O)[C@]1(C)[C@H]1CC[C@@H]2O1` [Candharidin], which “potency for PP2A” value (PP2A; description of known inhibitor) is on record?
**A.** The value was “selective inhibitor of PP2A”.

**Q.** What does the source list for `CC1(C(=O)O)C2CCC(O2)C1(C)C(=O)O` (centres unmarked) [Cantharidic acid]?
**A.** potency for PP2A (PP2A): inhibits PP2A and PP1 (for use in protein purification); potency for PP1 (PP1): inhibits PP2A and PP1 (for use in protein purification)

**Q.** With `Cn1cc(NC(=O)c2cc(NC(=O)c3cc(NC=O)cn3C)cn2C)cc1C(=O)NCCC(=N)N` [Distamycin] as the molecule, how does the “inhibition of E2F1-DNA complex” value (E2F1-DNA complex) read?
**A.** The value was “specifically inhibits E2F1-DNA complex”.

**Q.** Which “potency for PP2A” value (PP2A; description of known inhibitor) does the source give for `O=C(O)[C@@H]1[C@H](C(=O)O)[C@H]2CC[C@@H]1O2` [Endothall] here?
**A.** Its value is “intermediate potency for PP2A”.

**Q.** Which results are given for `C[C@@](O)(/C=C/[C@H]1CC=CC(=O)O1)[C@@H](C[C@@H](O)\C=C/C=C\C=C\CO)OP(=O)(O)O` [Fostriecin sodium salt]?
**A.** potency for PP2A (PP2A; description of known inhibitor): potent inhibitors for PP2A and PP4; potency for PP4 (PP4): potent inhibitors for PP2A and PP4

**Q.** With `C=C1C(=O)N[C@H](C)C(=O)N[C@@H](CC(C)C)C(=O)N[C@@H](C(=O)O)[C@H](C)C(=O)N[C@@H](CCCNC(=N)N)C(=O)N[C@@H](/C=C/C(C)=C/[C@H](C)[C@H](Cc2ccccc2)OC)[C@H](C)C(=O)N[C@@H](C(=O)O)CCC(=O)N1C` [Microcystin LR] (R[Adda][d(γGlu)][NMeDha][dA]L[dAsp(3S-Me)]-OH; lactam N-7) as the molecule, how does the “potency for PP2A compared to PP1” value (PP2A) read?
**A.** Its value is “more potent for PP2A when compared to PP1”.

**Q.** What does the source list for `C=C1[C@@H](O)[C@@H]2O[C@]3(CC[C@H](/C=C/[C@@H](C)[C@@H]4CC(C)=C[C@@]5(O[C@H](C[C@@](C)(O)C(=O)O)CC[C@H]5O)O4)O3)CC[C@H]2O[C@@H]1[C@@H](O)C[C@H](C)[C@H]1O[C@@]2(CCCCO2)CC[C@H]1C` [Okadaic acid]?
**A.** inhibition of PP2A (PP2A; at 1 nM): completely inhibits PP2A at 1 nM (less potent for PP1); potency for PP1 (PP1): completely inhibits PP2A at 1 nM (less potent for PP1)

**Q.** With `CCCn1c(=O)[nH]c2nc(-c3ccc(S(=O)(=O)N4CCN(Cc5ccccc5)CC4)cc3)[nH]c2c1=O` [PSB601] as the molecule, how does the “antagonism of adenosine A2b receptor” value (Adenosine A2b receptor) read?
**A.** The value was “specific antagonist”.

**Q.** For `N=C(N)c1ccc(OCCCCCOc2ccc(C(=N)N)cc2)cc1` [Pentamidine], which “inhibition of PRLs” value (PRLs) is on record?
**A.** Its value is “inhibits all PRLs”.

**Q.** With Toutomycin as the molecule, how does the “potency for PP2A compared to PP1” value (PP2A; PP2A versus PP1) read?
**A.** Its value is “more potent for PP1, less for PP2A”.
